pIC50: −log10 of the molar value.
Molecular target: T1, GPR44 (prostaglandin D2 receptor 2, DP2, CRTh2) (Homo sapiens, UniProt Q9Y5Y4)
T1 construct: gene PTGDR2; human recombinant GPR44 co-expressed with Gα16 in HEK293 cell membranes
T1 sequence (Q9Y5Y4 1-395): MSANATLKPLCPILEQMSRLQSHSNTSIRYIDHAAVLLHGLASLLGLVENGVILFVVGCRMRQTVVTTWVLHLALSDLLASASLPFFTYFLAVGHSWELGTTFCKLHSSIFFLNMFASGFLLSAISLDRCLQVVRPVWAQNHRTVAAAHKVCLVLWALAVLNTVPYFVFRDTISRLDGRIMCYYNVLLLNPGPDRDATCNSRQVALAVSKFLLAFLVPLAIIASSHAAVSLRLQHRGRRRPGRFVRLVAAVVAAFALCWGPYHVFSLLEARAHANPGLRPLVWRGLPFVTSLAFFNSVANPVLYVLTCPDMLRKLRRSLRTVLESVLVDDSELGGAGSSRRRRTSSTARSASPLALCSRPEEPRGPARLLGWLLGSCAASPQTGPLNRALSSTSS
Test: [3H]PGD2 displacement SPA on HEK293 membranes; also displacement of [[…]-3H-phenoxy]-AZ12204657 by filtration (IC50 […])
Format: binding

Compound: C[C@H](Oc1ccc(Cl)cc1Oc1ccc(S(C)(=O)=O)cc1Cl)C(=O)O [AZ12204657, (S)-2-(4-chloro-2-[2-chloro-4-(methylsulfonyl)phenoxy]phenoxy) propanoic acid]
- pIC50: 8.60

Source: PMC6306373, “The development of a GPR44 targeting radioligand [^11C]AZ12204657 for in vivo assessment of beta cell mass” (EJNMMI Research, 2018)
